The target in test [1] is human A2a adenosine receptor (Homo sapiens (Human), UniProt P29274). Briefly: A2a binding affinity using radioligand binding, Method (A). The following applies: Method (A): [3H]SCH58261 filtration binding. The method in brief: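 Membranes from HEK293 or CHO cells expressing human A2a were preincubated with compound for 15–30 min at room temperature. [3H]SCH58261 was then added (4 nM working dilution) in 50 mM Tris pH 7.4, 10 mM MgCl2, 0.005% Tween20 for 60 min at room temperature. Bound radioactivity after filtration was normalised to total and non-specific binding, and IC50 came from 4-parameter logistic fits.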
Chain of human A2a adenosine receptor (P29274 whole entry): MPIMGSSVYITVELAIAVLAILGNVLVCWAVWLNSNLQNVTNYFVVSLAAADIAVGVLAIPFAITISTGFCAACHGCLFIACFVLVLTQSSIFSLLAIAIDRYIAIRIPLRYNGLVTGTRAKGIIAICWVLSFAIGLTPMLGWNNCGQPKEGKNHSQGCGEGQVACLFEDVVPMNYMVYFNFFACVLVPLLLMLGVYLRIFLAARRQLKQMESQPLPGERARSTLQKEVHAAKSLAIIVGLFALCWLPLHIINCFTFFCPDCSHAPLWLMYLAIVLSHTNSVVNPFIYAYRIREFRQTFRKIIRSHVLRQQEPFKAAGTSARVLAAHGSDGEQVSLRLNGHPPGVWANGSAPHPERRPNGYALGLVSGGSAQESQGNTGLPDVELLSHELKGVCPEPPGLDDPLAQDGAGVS

The target of test [2] is human A2b adenosine receptor (Homo sapiens (Human), UniProt P29275). Briefly: A2b binding affinity, radioligand filtration binding assay. The following applies: tritiated proprietary A2b antagonist, HEK293 membranes. The method, then: Measurement of A2b Binding Affinity
Chain of human A2b adenosine receptor (P29275 whole entry): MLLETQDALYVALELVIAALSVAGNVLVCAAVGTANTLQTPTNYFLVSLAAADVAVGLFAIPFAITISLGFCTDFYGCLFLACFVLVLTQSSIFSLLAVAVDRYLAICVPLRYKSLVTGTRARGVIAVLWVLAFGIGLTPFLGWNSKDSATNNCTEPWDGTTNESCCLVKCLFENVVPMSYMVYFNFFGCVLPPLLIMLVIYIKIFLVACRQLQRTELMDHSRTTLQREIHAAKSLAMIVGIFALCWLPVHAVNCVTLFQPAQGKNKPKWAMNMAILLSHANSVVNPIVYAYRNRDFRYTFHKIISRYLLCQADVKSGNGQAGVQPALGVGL
The reported affinity of the compounds of the invention for the human A2b adenosine receptor was determined experimentally using a radioligand filtration binding assay. This assay measures the amount of binding of a tritiated proprietary A2b receptor antagonist, in the presence and absence of a compound of the invention, to membranes made from HEK293 cells recombinantly expressing the human A2b adenosine receptor (Perkin Elmer, Cat. No. ES-013-C).
The filter plate was incubated for at least 1 h at 55° C. and allowed to dry. The bottom of the filter plate was then sealed with backing tape. […] The plates were then incubated for at least 20 min, and then the amount of radioactivity remaining in each well was determined using a TopCount® (Perkin Elmer) scintillation counter. After normalization to total and non-specific binding, the percent effect at each compound concentration was calculated. The plot of percent effect versus the log of compound concentration was analyzed electronically using a 4-parameter logistic fit based on the Levenberg-Marquardt algorithm to generate IC50 values.

Structures are written as SMILES.

As a reminder, the IC50 is the midpoint of a concentration-inhibition curve. The low end stands for inhibition by little substance, the high end for a need for much substance.

For the compound `Cc1c(-c2cccc(F)c2)nc(N)n2nc(CNCc3ccc(C(F)(F)F)cc3)nc12` [Example 10.5, 7-(3-fluorophenyl)-8-methyl-2-(((4-(trifluoromethyl)benzyl)amino)methyl)-[1,2,4]triazolo[1,5-c]pyrimidin-5-amine], the values for the IC50 in test [1] and in test [2] were 0.163 µM and 0.157 µM, respectively.

Take `Cc1c(-c2ncco2)nc(N)n2nc(CNCc3ccc(C(C)(C)O)cc3)nc12` [Example 11.2, 2-(4-((((5-amino-8-methyl-7-(oxazol-2-yl)-[1,2,4]triazolo[1,5-c]pyrimidin-2-yl)methyl)amino)methyl)phenyl)propan-2-ol]: the IC50 in test [1] came to 0.0011 µM; in test [2], 0.0626 µM.

For the compound `Cc1c(-c2ncco2)nc(N)n2nc(CNCc3ccc(C(C)(C)O)cn3)nc12` [Example 11.3, 2-(6-((((5-amino-8-methyl-7-(oxazol-2-yl)-[1,2,4]triazolo[1,5-c]pyrimidin-2-yl)methyl)amino)methyl)pyridin-3-yl)propan-2-ol], the IC50 in test [1] was 0.0155 µM; in test [2], 0.0406 µM.

For `Cc1c(-c2ncco2)nc(N)n2nc(CNCc3ccc(C(C)(C)O)nc3)nc12` [Example 11.4, 2-(5-((((5-amino-8-methyl-7-(oxazol-2-yl)-[1,2,4]triazolo[1,5-c]pyrimidin-2-yl)methyl)amino)methyl)pyridin-2-yl)propan-2-ol], the results for the IC50 in test [1] and in test [2] were 0.0054 µM and 0.744 µM, respectively.

Turning to `Cc1c(-c2ncco2)nc(N)n2nc(CNCc3cnn(CC(C)(C)O)c3)nc12` [Example 11.5, 1-(4-((((5-amino-8-methyl-7-(oxazol-2-yl)-[1,2,4]triazolo[1,5-c]pyrimidin-2-yl)methyl)amino)methyl)-1H-pyrazol-1-yl)-2-methylpropan-2-ol], the IC50 came to 0.0152 µM in test [1] and 1.32 µM in test [2].

As to `Cc1c(-c2ncco2)nc(N)n2nc(CN(Cc3ccc(C(F)(F)F)cc3)CC(F)F)nc12` [Example 12.3], the results for the half-inhibitory concentration (IC50) in test [1] and in test [2] were 0.0007 µM and 1.99 µM, respectively.

As for `Cc1c(-c2ncco2)nc(N)n2nc(CN(Cc3ccc(C(C)(C)O)cc3)CC(F)F)nc12` [Example 13.1, 2-(4-((((5-amino-8-methyl-7-(oxazol-2-yl)-[1,2,4]triazolo[1,5-c]pyrimidin-2-yl)methyl)(2,2-difluoroethyl)amino)methyl)phenyl)propan-2-ol], the IC50 is 0.0004 µM in test [1] and 0.489 µM in test [2].

Turning to `Cc1c(-c2ncco2)nc(N)n2nc(CCS(=O)(=O)C3CC3)nc12` [Example 15.3, 2-(2-(cyclopropylsulfonyl)ethyl)-8-methyl-7-(oxazol-2-yl)-[1,2,4]triazolo[1,5-c]pyrimidin-5-amine], the IC50 is 0.0073 µM in test [1] and 0.151 µM in test [2].

Take `Cc1c(-c2cccc(F)c2)nc(N)n2nc(CCS(=O)(=O)C3CC3)nc12` [Example 16.2, 2-(2-(cyclopropylsulfonyl)ethyl)-7-(3-fluorophenyl)-8-methyl-[1,2,4]triazolo[1,5-c]pyrimidin-5-amine]: the IC50 in test [1] is 0.0193 µM; in test [2] it was 0.453 µM.

Take `Cc1c(-c2ncco2)nc(N)n2nc(CCN3CCn4c(cnc4C4CC(F)(F)C4)C3)nc12` [Example 17.2, 2-(2-(3-(3,3-difluorocyclobutyl)-5,6-dihydroimidazo[1,5-a]pyrazin-7(8H)-yl)ethyl)-8-methyl-7-(oxazol-2-yl)-[1,2,4]triazolo[1,5-c]pyrimidin-5-amine]: the figures for the IC50 in test [1] and in test [2] were 0.0004 µM and 0.0203 µM, respectively.

In the case of `Cc1c(-c2ncco2)nc(N)n2nc(CCN3CCn4c(cnc4C4CCCC4)C3)nc12` [Example 17.3, 2-(2-(3-cyclopentyl-5,6-dihydroimidazo[1,5-a]pyrazin-7(8H)-yl)ethyl)-8-methyl-7-(oxazol-2-yl)-[1,2,4]triazolo[1,5-c]pyrimidin-5-amine], the IC50 in test [1] is 0.0042 µM; in test [2], 0.0177 µM.

As for `Cc1c(-c2ncco2)nc(N)n2nc(CCN3Cc4cn(CC(C)(C)O)nc4C3)nc12` [Example 17.4, 1-(5-(2-(5-amino-8-methyl-7-(oxazol-2-yl)-[1,2,4]triazolo[1,5-c]pyrimidin-2-yl)ethyl)-5,6-dihydropyrrolo[3,4-c]pyrazol-2(4H)-yl)-2-methylpropan-2-ol], the figures for the IC50 in test [1] and in test [2] were 0.0094 µM and 1.43 µM, respectively.

Turning to `Cc1c(-c2ncco2)nc(N)n2nc(CCN3Cc4cnn(C)c4C3)nc12` [Example 17.5, 8-methyl-2-(2-(1-methyl-4,6-dihydropyrrolo[3,4-c]pyrazol-5(1H)-yl)ethyl)-7-(oxazol-2-yl)-[1,2,4]triazolo[1,5-c]pyrimidin-5-amine], the results for the IC50 in test [1] and in test [2] were 0.0436 µM and 0.688 µM, respectively.

In the case of `Cc1cc2n(n1)CCN(CCc1nc3c(C)c(-c4ncco4)nc(N)n3n1)C2` [Example 17.6, 8-methyl-2-(2-(2-methyl-6,7-dihydropyrazolo[1,5-a]pyrazin-5(4H)-yl)ethyl)-7-(oxazol-2-yl)-[1,2,4]triazolo[1,5-c]pyrimidin-5-amine], the IC50 in test [1] is 0.0163 µM; in test [2], 0.677 µM.

Take `Cc1c(-c2ncco2)nc(N)n2nc(CCN3CCn4c(cnc4C45CC(C4)C5)C3)nc12` [Example 17.7, 2-(2-(3-(bicyclo[1.1.1]pentan-1-yl)-5,6-dihydroimidazo[1,5-a]pyrazin-7(8H)-yl)ethyl)-8-methyl-7-(oxazol-2-yl)-[1,2,4]triazolo[1,5-c]pyrimidin-5-amine]: the half-inhibitory concentration (IC50) worked out at 0.0006 µM in test [1] and 0.0178 µM in test [2].

On to `Cc1c(-c2ncco2)nc(N)n2nc(CCN3CCc4nn(C5CC(F)(F)C5)cc4C3)nc12` [Example 17.9, 2-(2-(2-(3,3-difluorocyclobutyl)-2,4,6,7-tetrahydro-5H-pyrazolo[4,3-c]pyridin-5-yl)ethyl)-8-methyl-7-(oxazol-2-yl)-[1,2,4]triazolo[1,5-c]pyrimidin-5-amine], for which the IC50 was determined as 0.0041 µM in test [1] and 0.097 µM in test [2].

`Cc1c(-c2ncco2)nc(N)n2nc(CCN3CCc4c(cnn4C4CC(F)(F)C4)C3)nc12` [Example 17.10, 2-(2-(1-(3,3-difluorocyclobutyl)-1,4,6,7-tetrahydro-5H-pyrazolo[4,3-c]pyridin-5-yl)ethyl)-8-methyl-7-(oxazol-2-yl)-[1,2,4]triazolo[1,5-c]pyrimidin-5-amine]: the figures for the IC50 in test [1] and in test [2] were 0.0006 µM and 0.0206 µM, respectively.

With `Cc1c(-c2ncco2)nc(N)n2nc(CCN3CCc4nn(C5CCCC5)cc4C3)nc12` [Example 17.11, 2-(2-(2-cyclopentyl-2,4,6,7-tetrahydro-5H-pyrazolo[4,3-c]pyridin-5-yl)ethyl)-8-methyl-7-(oxazol-2-yl)-[1,2,4]triazolo[1,5-c]pyrimidin-5-amine], the IC50 in test [1] stood at 0.0013 µM; in test [2], 0.301 µM.

On to `Cc1c(-c2ncco2)nc(N)n2nc(CCN3CCc4c(cnn4C4CCCC4)C3)nc12` [Example 17.12, 2-(2-(1-cyclopentyl-1,4,6,7-tetrahydro-5H-pyrazolo[4,3-c]pyridin-5-yl)ethyl)-8-methyl-7-(oxazol-2-yl)-[1,2,4]triazolo[1,5-c]pyrimidin-5-amine], for which the values for the IC50 in test [1] and in test [2] were 0.0012 µM and 0.045 µM, respectively.

For the compound `Cc1c(-c2ncco2)nc(N)n2nc(CCN3CCc4c(nnn4C4CCCC4)C3)nc12` [Example 17.13, 2-(2-(1-cyclopentyl-1,4,6,7-tetrahydro-5H-[1,2,3]triazolo[4,5-c]pyridin-5-yl)ethyl)-8-methyl-7-(oxazol-2-yl)-[1,2,4]triazolo[1,5-c]pyrimidin-5-amine], the IC50 turned out to be 0.0007 µM in test [1] and 0.0081 µM in test [2].
